In brackets after ≈: the same amount, converted by molar mass. Like-named read-outs stand apart in the source and are kept apart here.
Tests used:
Assay type in all cases: cell-based
[1] = test system: Candida albicans; test: Growth inhibition (minimum inhibitory concentration, gross turbidity); conditions: read-out: Minimum Inhibitory Concentration C. albicans
Experimental: (§1) The ability of the phosphocholine derivatives of Examples 1-2 to inhibit growth of Candida albicans, Staphylococcus aureus, Lactobacillus acidophilus, and Gardnerella vaginale was tested. Each phosphocholine derivative (at concentrations ranging from 0 to 500 micrograms per milliliter) was dissolved into a broth media and 6 wt. % ethanol. Thereafter, 0.1 milliliter of each solution was inoculated in 1.0 milliliter of a growth media containing the microorganism of interest. The growth media was TSB media for Candida albicans and Staphylococcus aureus, MRS broth for Lactobacillus acidophilus, and NYC-3 broth enriched proteose peptone for Gardnerella vaginale. The concentration of the microorganism in the growth media was 10^4 colony forming units (“CFU”) per milliliter.
(§2) Thereafter, the gross turbidity of the media was monitored at 24, 48, and 72 hours time intervals. Gross turbidity is an indicative of growth inhibition and is determined using visual determination or a spectrophotometer. The concentration of the phosphocholine derivative at which no turbidity is detected is designated as the “minimum inhibitory concentration.” Phosphocholine derivatives having lower minimum inhibitory concentrations are generally considered to have better antimicrobial efficacy.

[2] = test system: Gardnerella vaginale; test: as above; conditions: read-out: Minimum Inhibitory Concentration G. vaginale
Experimental: as §1, §2

[3] = test system: Lactobacillus acidophilus; test: as above; conditions: read-out: Minimum Inhibitory Concentration L. acidophilus
Experimental: as §1, §2

[4] = test system: Staphylococcus aureus; test: as above; conditions: read-out: Minimum Inhibitory Concentration S. aureus
Experimental: as §1, §2

[5] = test system: Candida albicans (C. albicans); test: Time-dependent inhibition (organism count)
Excerpt: (§3) Hexadecyl phosphocholine (“BRB-1”) was studied for inhibition of Candida albicans (C. albicans), Staphylococcus aureus (S. aureus), and lactobacilli. The results are shown below in Tables 3-4. Tetradecyl phosphocholine (“BRB-3”) was also studied for inhibition of C. albicans aureus, and lactobaccili.

[6] = test system: L. acidophilus (lactobacilli); test: Time-dependent inhibition (organism count); conditions: for Organism Count / Percent Reduction: L. acidophilus
Excerpt: as §3

[7] = test system: Staphylococcus aureus (S. aureus); test: Time-dependent inhibition (organism count)
Excerpt: as §3

[8] = TSB media, 10^4 CFU/ml, turbidity at 24, 48, 72 hours
[9] = NYC-3 broth, 10^4 CFU/ml, turbidity at 24, 48, 72 hours
[10] = MRS broth, 10^4 CFU/ml, turbidity at 24, 48, 72 hours

Compound: CCCCCCCCCCCCCCOP(=O)([O-])OCC[N+](C)(C)C
- MIC [1, 8]: 62.5 µg/mL (≈ 165 µM)
- MIC [2, 9]: 250 µg/mL (≈ 659 µM)
- MIC [3, 10]: 250 µg/mL (≈ 659 µM)
- MIC [4, 8]: 250 µg/mL (≈ 659 µM)

Compound: CCCCCCCCCCCCCCCCOP([O-])(=S)OCC[N+](C)(C)C (stereo not shown)
- MIC ([1]; 72 h): 31.2 µg/mL (≈ 73.8 µM)
- MIC ([2]; 72 h): 31.2 µg/mL (≈ 73.8 µM)
- MIC ([3]; 72 h): 31.2 µg/mL (≈ 73.8 µM)
- MIC ([4]; 72 h): 31.2 µg/mL (≈ 73.8 µM)

Compound: CCCCCCCCCCCCCCCCOCC(O)COP(=O)([O-])OCC[N+](C)(C)C (racemic)
- MIC [1, 8]: 125 µg/mL (≈ 260 µM)
- MIC [2, 9]: 250 µg/mL (≈ 519 µM)
- MIC [3, 10]: 250 µg/mL (≈ 519 µM)
- MIC [4, 8]: 250 µg/mL (≈ 519 µM)

Compound: CCCCCCCCCCCCCCCCOP(=O)([O-])OCC[N+](C)(C)C [BRB-1, hexadecyl phosphocholine]
- MIC [1, 8]: 15.6 µg/mL (≈ 38.3 µM)
- MIC [2, 9]: 31.2 µg/mL (≈ 76.7 µM)
- MIC [3, 10]: 125 µg/mL (≈ 307 µM)
- MIC [4, 8]: 125 µg/mL (≈ 307 µM)
- Organism Count ([5]; 10 μg/ml, 0 Hour): 8.4 × 10^5 CFU/ml
- % Reduction ([5]; 10 μg/ml, 1 Hour): 68.0%
- Organism Count ([5]; 10 μg/ml, 1 Hour): 2.3 × 10^5 CFU/ml
- % Reduction ([5]; 10 μg/ml, 2 Hours): 99.7%
- Organism Count ([5]; 10 μg/ml, 2 Hours): 2.1 × 10^3 CFU/ml
- % Reduction ([5]; 10 μg/ml, 4 Hours): 99.99%
- Organism Count ([5]; 10 μg/ml, 4 Hours): 50 CFU/ml
- % Reduction ([5]; 100 μg/ml, 0 Hour): 27.5%
- Organism Count ([5]; 100 μg/ml, 0 Hour): 2.9 × 10^5 CFU/ml
- % Reduction ([5]; 100 μg/ml, 1 Hour): 70.0%
- Organism Count ([5]; 100 μg/ml, 1 Hour): 1.2 × 10^5 CFU/ml
- % Reduction ([5]; 100 μg/ml, 2 Hours): 99.8%
- Organism Count ([5]; 100 μg/ml, 2 Hours): 8.0 × 10^2 CFU/ml
- % Reduction ([5]; 100 μg/ml, 4 Hours): 99.9%
- Organism Count ([5]; 100 μg/ml, 4 Hours): 3.8 × 10^2 CFU/ml
- Organism Count ([6]; 1 μg/ml, 0 Hour): 7.0 × 10^4 CFU/ml
- Percent Reduction ([6]; 1 μg/ml, 0 Hour): 6.7%
- Organism Count ([6]; 1 μg/ml, 1 Hour): 8.6 × 10^4 CFU/ml
- Organism Count ([6]; 1 μg/ml, 2 Hours): 7.6 × 10^4 CFU/ml
- Organism Count ([6]; 1 μg/ml, 4 Hours): 6.7 × 10^4 CFU/ml
- Percent Reduction ([6]; 1 μg/ml, 4 Hours): 10.7%
- Organism Count ([6]; 10 μg/ml, 0 Hour): 1.8 × 10^5 CFU/ml
- Percent Reduction ([6]; 10 μg/ml, 0 Hour): 18.2%
- Organism Count ([6]; 10 μg/ml, 1 Hour): 20 CFU/ml
- Percent Reduction ([6]; 10 μg/ml, 1 Hour): 99.99%
- Percent Reduction ([6]; 10 μg/ml, 6 Hours): 99.99%
- Organism Count ([6]; 100 μg/ml, 0 Hour): 1.5 × 10^5 CFU/ml
- Percent Reduction ([6]; 100 μg/ml, 0 Hour): 31.8%
- Organism Count ([6]; 100 μg/ml, 1 Hour): 70 CFU/ml
- Percent Reduction ([6]; 100 μg/ml, 1 Hour): 99.97%
- Percent Reduction ([6]; 100 μg/ml, 6 Hours): 99.99%
- % Reduction ([7]; 10 μg/ml, 0 Hour): 18.5%
- Organism Count ([7]; 10 μg/ml, 0 Hour): 5.3 × 10^4 CFU/ml
- % Reduction ([7]; 10 μg/ml, 1 Hour): 98.9%
- Organism Count ([7]; 10 μg/ml, 1 Hour): 7.3 × 10^2 CFU/ml
- % Reduction ([7]; 10 μg/ml, 2 Hours): 99.91%
- Organism Count ([7]; 10 μg/ml, 2 Hours): 60 CFU/ml
- % Reduction ([7]; 10 μg/ml, 4 Hours): 99.98%
- % Reduction ([7]; 100 μg/ml, 0 Hour): 39.2%
- Organism Count ([7]; 100 μg/ml, 0 Hour): 4.8 × 10^4 CFU/ml
- % Reduction ([7]; 100 μg/ml, 1 Hour): 99.8%
- Organism Count ([7]; 100 μg/ml, 1 Hour): 1.4 × 10^2 CFU/ml
- % Reduction ([7]; 100 μg/ml, 2 Hours): 99.97%
- Organism Count ([7]; 100 μg/ml, 2 Hours): 20 CFU/ml
- % Reduction ([7]; 100 μg/ml, 4 Hours): 99.99%

Compound: tetradecyl phosphocholine [BRB-3]
- % Reduction ([5]; 10 μg/ml, 0 Hour): 2.7%
- Organism Count ([5]; 10 μg/ml, 0 Hour): 7.1 × 10^4 CFU/ml
- % Reduction ([5]; 10 μg/ml, 1 Hour): 20.5%
- Organism Count ([5]; 10 μg/ml, 1 Hour): 5.8 × 10^4 CFU/ml
- % Reduction ([5]; 10 μg/ml, 2 Hours): 30.1%
- Organism Count ([5]; 10 μg/ml, 2 Hours): 5.1 × 10^4 CFU/ml
- % Reduction ([5]; 10 μg/ml, 4 Hours): 52.0%
- Organism Count ([5]; 10 μg/ml, 4 Hours): 3.5 × 10^4 CFU/ml
- % Reduction ([5]; 100 μg/ml, 0 Hour): 26.0%
- Organism Count ([5]; 100 μg/ml, 0 Hour): 7.4 × 10^4 CFU/ml
- % Reduction ([5]; 100 μg/ml, 1 Hour): 43.0%
- Organism Count ([5]; 100 μg/ml, 1 Hour): 5.7 × 10^4 CFU/ml
- % Reduction ([5]; 100 μg/ml, 2 Hours): 51.0%
- Organism Count ([5]; 100 μg/ml, 2 Hours): 4.9 × 10^4 CFU/ml
- % Reduction ([5]; 100 μg/ml, 4 Hours): 46.0%
- Organism Count ([5]; 100 μg/ml, 4 Hours): 5.4 × 10^4 CFU/ml
- Organism Count ([6]; 10 μg/ml, 0 Hour): 3.1 × 10^5 CFU/ml
- Percent Reduction ([6]; 10 μg/ml, 0 Hour): 16.2%
- Organism Count ([6]; 10 μg/ml, 1 Hour): 2.9 × 10^5 CFU/ml
- Percent Reduction ([6]; 10 μg/ml, 1 Hour): 21.6%
- Organism Count ([6]; 10 μg/ml, 2 Hours): 2.4 × 10^5 CFU/ml
- Percent Reduction ([6]; 10 μg/ml, 2 Hours): 35.1%
- Organism Count ([6]; 10 μg/ml, 4 Hours): 2.3 × 10^5 CFU/ml
- Percent Reduction ([6]; 10 μg/ml, 4 Hours): 37.8%
- Organism Count ([6]; 100 μg/ml, 0 Hour): 4.5 × 10^5 CFU/ml
- Percent Reduction ([6]; 100 μg/ml, 0 Hour): 88.5%
- Percent Reduction ([6]; 100 μg/ml, 1 Hour): 99.99%
- Inhibition of lactobacilli (in words) ([6]; Tables 4 and 5, ascribed to organism instability in the media and the protocol): some inhibtion
- Organism Count ([7]; 10 μg/ml, 0 Hour): 1.4 × 10^5 CFU/ml
- % Reduction ([7]; 10 μg/ml, 1 Hour): 18.3%
- Organism Count ([7]; 10 μg/ml, 1 Hour): 9.8 × 10^4 CFU/ml
- % Reduction ([7]; 10 μg/ml, 2 Hours): 25.8%
- Organism Count ([7]; 10 μg/ml, 2 Hours): 8.9 × 10^4 CFU/ml
- % Reduction ([7]; 10 μg/ml, 4 Hours): 38.3%
- Organism Count ([7]; 10 μg/ml, 4 Hours): 7.4 × 10^4 CFU/ml
- % Reduction ([7]; 100 μg/ml, 0 Hour): 7.1%
- Organism Count ([7]; 100 μg/ml, 0 Hour): 1.3 × 10^5 CFU/ml
- % Reduction ([7]; 100 μg/ml, 1 Hour): 97.9%
- Organism Count ([7]; 100 μg/ml, 1 Hour): 2.9 × 10^3 CFU/ml
- % Reduction ([7]; 100 μg/ml, 2 Hours): 99.9%
- Organism Count ([7]; 100 μg/ml, 2 Hours): 1.1 × 10^2 CFU/ml
- % Reduction ([7]; 100 μg/ml, 4 Hours): 99.99%

Reference: patent US8703179B2, “Mucosal formulation” (Kimberly-Clark Worldwide, Inc., priority 2006, dated 2014)
